Measured values: patent US7872046B2, “Crystalline form of a (3S)-aminomethyl-5-methyl-hexanoic acid prodrug and methods of use” (Xenoport, Inc., priority 2008, dated 2011)

Experiments:
[1] = dosed either orally or directly into the colon of a mammal; cited from earlier work
[2] = Pregabalin pharmacokinetics following intracolonic administration in monkeys (Example 12); assay type: in vivo, cynomologus monkeys; settings: 10 mg-eq PG/kg
Procedure: The pharmacokinetics of pregabalin and crystalline calcium (3S)-{[(1R)-isobutanoyloxyethoxy]carbonylaminomethyl}-5-methyl-hexanoate hydrate following intracolonic administration in monkeys was determined.
A group of four male cynomologus monkeys received an intracolonic dose of pregabalin or crystalline calcium (3S)-{[(1R)-isobutanoyloxyethoxy]carbonylaminomethyl}-5-methyl-hexanoate hydrate (10 mg-eq pregabalin/kg). A 7-day wash-out period was allowed between treatments. Blood samples (300 μL) were collected from all animals prior to dosing and at intervals up to 24 hours post-dosing and immediately quenched in tubes containing K2EDTA to prevent hydrolysis. Two aliquots (100 μL each) were immediately quenched with 300 μL methanol. All quenched blood samples were subsequently analyzed for (3S)-{[(1R)-isobutanoyloxyethoxy]carbonylaminomethyl}-5-methyl-hexanoate free acid and pregabalin using LC-MS/MS.
Pregabalin was obtained from Teva (Peteh Tiqva, Israel). Crystalline calcium (3S)-{[(1R)-isobutanoyloxyethoxy]carbonylaminomethyl}-5-methyl-hexanoate hydrate was synthesized from commercial pregabalin according to Examples 1-6.
Cynomologus monkeys (body weight approximately 2.5 kg to 5.0 kg) were used in the study. Monkeys were fasted overnight and for the first 4 hours after dose administration. Water was provided ad libitum. For intracolonic administration, pregabalin or crystalline calcium (3S)-{[(1R)-isobutanoyloxyethoxy]carbonylaminomethyl}-5-methyl-hexanoate hydrate was suspended in 0.5% methylcellulose/0.1% Tween 80 in sodium phosphate buffer at pH 7.4. Blood samples were analyzed and pharmacokinetic analysis performed as described in Example 14.
(§1) Blood concentration data for all analytes were analyzed by non-compartmental methods using WinNonlin (WinNonlin™ Software, version 5.2, Pharsight Corp. Mountain View, Calif.). Non-compartmental analysis was performed on individual profiles in each animal. All concentration values below the limit of quantitation (BLQ) were treated as 0 (zero) for the pharmacokinetic analysis. Low concentration values at predose were treated as BLQ. Nominal sample collection time points were used for the calculation of pharmacokinetic parameters. All concentration data were plotted using SigmaPlot (SigmaPlot™, Version 9.0, Systat Software Inc., Richmond, Calif.).
(§2) The maximum concentration (Cmax) and time to Cmax(Tmax) were obtained by observation. The apparent elimination half-life (T1/2) was obtained by linear regression of three or more log-transformed data points in the terminal phase. The area under the concentration versus time curve (AUClast) was obtained by the linear trapezoidal method using concentration data up to the last quantifiable concentration. The AUC value extrapolated to infinity (AUCinf) was calculated as: AUCinf=AUClast+Clast/λz where tlast is the time of the last quantifiable concentration (Clast) and λz is the rate constant of the apparent terminal elimination phase.
(§3) The bioavailability (F) of pregabalin after extravascular dosing of pregabalin or prodrug was calculated by comparison to data following intravenous administration of pregabalin as follows: F(%)=100×(AUCex/Doseex)/(AUCiv/Doseiv) where AUCex is the area under the pregabalin concentration versus time curve in μg×hr/mL following extravascular administration of pregabalin or crystalline calcium (3S)-{[(1R)-isobutanoyloxyethoxy]carbonylaminomethyl}-5-methyl-hexanoate hydrate formulation; Doseex is the extravascular dose expressed in mg-equivalents of pregabalin/kg body weight; AUCiv is the area under the pregabalin concentration versus time curve in μg×hr/mL following intravenous administration of pregabalin; and Doseiv is the intravenous dose expressed in mg-equivalents of pregabalin/kg body weight.

[3] = Pregabalin pharmacokinetics following administration of oral tablet formulations in monkeys (Example 14); assay type: in vivo, cynomolgus monkeys
Procedure: One group of four male cynomolgus monkeys was used for the study. The mean body weight was approximately 2.9 kg at the start of the study and increased over the 9 months of the study to approximately 3.4 kg. The animals were fasted overnight and for the first 4 hours of the study after administration of each test formulation. Water was provided ad libitum.
All formulations were evaluated in a single group of four fasted male cynomolgus monkeys with at least 5 days washout between treatments. The IR tablet formulation was administered at 75 mg-eq pregabalin (1 tablet per animal). Three different SR tablet formulations were dosed orally at either 75 mg-eq. pregabalin or 69 mg-eq. pregabalin (1 tablet each per animal).
Blood samples were obtained from all animals at intervals up to 24 hours post-dosing. Approximately 0.3 mL of blood was collected in pre-chilled K2EDTA tubes containing 0.3 mL of methanol. Within 30 minutes, the blood samples were stored at or below −70° C.
Quenched blood samples were frozen and stored at −20° C. prior to analysis. Samples were analyzed by a sensitive and specific LC-MS/MS method for simultaneous determination of (3S)-{[(1R)-isobutanoyloxyethoxy]carbonylaminomethyl}-5-methyl-hexanoate free acid and pregabalin concentrations.
as §1, §2
as §3, with “weight. […]” for “weight.”

[4] = Hygroscopicity of solid forms; assay type: physicochemical; settings: solid material
[5] = IR tablet, 75 mg-eq PG (22.4 mg-eq PG/kg)
[6] = SR1 tablet, 75 mg-eq PG (22.3 mg-eq PG/kg)
[7] = SR2 tablet, 69 mg-eq PG (21.1 mg-eq PG/kg)
[8] = SR tablet, 75 mg-eq PG (21.7 mg-eq PG/kg)

Question: With `CC(C)C[C@H](CNC(=O)OC(C)OC(=O)C(C)C)CC(=O)O` (stereo partly drawn) [(1), (3S)-{[1-Isobutanoyloxyethoxy]carbonylaminomethyl}-5-methyl-hexanoic acid] as the compound, how does the bioavailability as pregabalin [1] read?
Answer: high bioavailability

Question: What does the source list for `CC(C)C[C@H](CN)CC(=O)O` [Pregabalin, (3S)-aminomethyl-5-methyl-hexanoic acid]?
Answer: AUC(0-inf) ([2]; male, monkey, whole blood, 10 mg/kg, read-out: AUCinf, pregabalin in blood, mean (SD)): 3100 ng·h/mL; AUC(0-t) ([2]; male, monkey, whole blood, 10 mg/kg, read-out: AUClast, pregabalin in blood, mean (SD)): 2200 ng·h/mL; Cmax ([2]; male, monkey, whole blood, 10 mg/kg, read-out: Cmax, pregabalin in blood, mean (SD)): 240 ng/mL; half-life ([2]; male, monkey, whole blood, 10 mg/kg, read-out: T1/2, pregabalin in blood, mean (SD) (converted)): 6.15 h; Tmax ([2]; male, monkey, whole blood, 10 mg/kg, read-out: Tmax, pregabalin in blood, mean (SD)): 0.5 h; bioavailability ([2]; male, monkey, whole blood, other: intracolonic, 8 mg/kg, read-out: F, bioavailability of pregabalin relative to IV pregabalin at 8 mg/kg, mean (SD)): 2.7%; F, bioavailability (based on AUClast) relative to AUCinf of intravenous pregabalin at 8 mg/kg, mean (SD) ([3]; LYRICA capsules, 150 mg-eq PG (52.4 mg-eq PG/kg)): 41 (9) %; AUC(0-t) ([3]; male, cynomolgus monkey, whole blood, LYRICA capsules, 150 mg-eq PG (52.4 mg-eq PG/kg), read-out: AUClast, pregabalin in blood, mean (SD)): 188000 ng·h/mL; Cmax ([3]; male, cynomolgus monkey, whole blood, LYRICA capsules, 150 mg-eq PG (52.4 mg-eq PG/kg), read-out: Cmax, pregabalin in blood, mean (SD)): 21900 ng/mL; Tmax ([3]; male, cynomolgus monkey, whole blood, LYRICA capsules, 150 mg-eq PG (52.4 mg-eq PG/kg), read-out: Tmax, pregabalin in blood, mean (SD)): 3 h

Question: What does the source list for “calcium (3S)-{[(1R)-isobutanoyloxyethoxy]carbonylaminomethyl}-5-methyl-hexanoate hydrate [(3a)]”?
Answer: AUCinf, pregabalin in blood, mean (SD) [2]: 55.9 (12.1) μg × hr/mL; AUClast, pregabalin in blood, mean (SD) [2]: 54.5 (11.3) μg × hr/mL; Cmax, pregabalin in blood, mean (SD) [2]: 7.54 (1.89) μg/mL; T1/2, pregabalin in blood, mean (SD) [2]: 4.17 (1.15) hr; Tmax, pregabalin in blood, mean (SD) [2]: 0.88 (0.25) hr; AUClast, pregabalin in blood, mean (SD) [3, 5]: 163 (25) μg × hr/mL; Cmax, pregabalin in blood, mean (SD) [3, 5]: 19.3 (2.4) μg/mL; F, bioavailability (based on AUClast) relative to AUCinf of intravenous pregabalin at 8 mg/kg, mean (SD) [3, 5]: 82 (13) %; Tmax, pregabalin in blood, mean (SD) [3, 5]: 2.0 (1.4) hr; AUClast, pregabalin in blood, mean (SD) [3, 6]: 104 (16) μg × hr/mL; Cmax, pregabalin in blood, mean (SD) [3, 6]: 7.2 (1.2) μg/mL; F, bioavailability (based on AUClast) relative to AUCinf of intravenous pregabalin at 8 mg/kg, mean (SD) [3, 6]: 52 (6) %; Tmax, pregabalin in blood, mean (SD) [3, 6]: 8.0 (6.9) hr; AUClast, pregabalin in blood, mean (SD) [3, 7]: 70 (1) μg × hr/mL; Cmax, pregabalin in blood, mean (SD) [3, 7]: 5.0 (0.3) μg/mL; F, bioavailability (based on AUClast) relative to AUCinf of intravenous pregabalin at 8 mg/kg, mean (SD) [3, 7]: 35 (9) %; Tmax, pregabalin in blood, mean (SD) [3, 7]: 14.0 (3.5) hr; AUClast, pregabalin in blood, mean (SD) [3, 8]: 137 (40) μg × hr/mL; Cmax, pregabalin in blood, mean (SD) [3, 8]: 13.5 (3.2) μg/mL; F, bioavailability (based on AUClast) relative to AUCinf of intravenous pregabalin at 8 mg/kg, mean (SD) [3, 8]: 70 (16) %; Tmax, pregabalin in blood, mean (SD) [3, 8]: 3.2 (1.5) hr; hygroscopicity [4]: hygroscopic
